This test in a line: Inhibition of yeast prion protein Sup35 infection of PSI yeast spheroplast cells.

Each structure is given as a SMILES string.

EC50 data for one compound are collected here from BindingDB's records for doi:10.1038/nchembio.65 (University of California San Francisco, 2008).

Turning to `O=C1C(I)=CC(=C(c2ccccc2C(=O)O)C2C=C(I)C(=O)C(I)=C2)C=C1I` [TERAIODOPHENOLPHATHALIN], the EC50 was 100 µM.

In general, EC50 refers to the concentration that produces a half-maximal response.
